The numbers were not newly measured in patent publication US6465462B1, “Substituted triazolo pyridazine derivatives as inverse agonists of the GABAAα5 receptor subtype” (Merck Sharp & Dohme Ltd., priority 1996, dated 2002), which cites them from elsewhere.

Molecules are shown by their SMILES.

For data set [1] the following is noted: in vivo.
For data set [2] the following is noted: reported by McNamara and Skelton, Psychobiology 21:101-108.

On to `COC(=O)c1cc2c(cn1)[nH]c1ccccc12` [β-CCM], for which the proconvulsant effect result in data set [1] is listed as “proconvulsant”. In addition, the “spatial learning in the Morris watermaze” value in data set [2] is “enhanced spatial learning”.
